From patent US20110294766A1, “16 Alpha, 17 Alpha-Acetal Glucocorticosteroidal Derivatives and their Use” (AstraZeneca AB, priority 2008, published 2011) come the findings set out here.

For orientation: IC50 means the concentration at which inhibition is half-maximal.

The structures appear in SMILES notation.

This test concerns the target T1, recombinant human GR (Homo sapiens, UniProt P04150).
T1 construct: purchased Panvera/Invitrogen P2812 (kit P2893)
T1 sequence (P04150 1-777): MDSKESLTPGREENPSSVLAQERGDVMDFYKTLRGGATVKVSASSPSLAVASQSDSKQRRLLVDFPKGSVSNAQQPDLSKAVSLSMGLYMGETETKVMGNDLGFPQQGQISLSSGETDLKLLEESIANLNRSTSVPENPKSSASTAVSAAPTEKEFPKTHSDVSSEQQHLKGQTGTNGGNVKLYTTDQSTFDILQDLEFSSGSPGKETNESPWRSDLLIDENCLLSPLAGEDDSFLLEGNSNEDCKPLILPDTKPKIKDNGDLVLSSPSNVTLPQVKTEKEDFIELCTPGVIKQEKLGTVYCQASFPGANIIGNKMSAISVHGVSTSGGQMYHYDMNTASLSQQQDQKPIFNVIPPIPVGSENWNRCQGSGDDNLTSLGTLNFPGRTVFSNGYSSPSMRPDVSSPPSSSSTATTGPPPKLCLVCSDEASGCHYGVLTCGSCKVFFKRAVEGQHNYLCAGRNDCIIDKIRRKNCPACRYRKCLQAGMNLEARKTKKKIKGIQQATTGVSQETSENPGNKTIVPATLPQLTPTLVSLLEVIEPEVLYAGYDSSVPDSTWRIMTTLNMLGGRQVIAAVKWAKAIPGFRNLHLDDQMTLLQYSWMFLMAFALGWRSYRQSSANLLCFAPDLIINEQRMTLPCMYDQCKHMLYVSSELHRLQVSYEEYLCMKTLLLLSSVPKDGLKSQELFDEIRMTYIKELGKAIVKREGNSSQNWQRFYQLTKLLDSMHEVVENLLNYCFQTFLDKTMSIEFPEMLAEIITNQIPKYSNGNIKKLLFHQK
As to the kind of experiment: Human Glucocorticoid Receptor (GR) Assay (fluorescence polarization, Panvera/Invitrogen kit). As to conditions: GS Red tracer, 2 hours at room temperature, 100% control 10 μM Dexamethasone, read-out: Inhibition of GR binding, IC50. The procedure: Human Glucocorticoid Receptor (GR) Assay The assay is based on a commercial kit from Panvera/Invitrogen (Part number P2893). The assay technology is fluorescence polarization. The kit utilises recombinant human GR (Panvera, Part number P2812), a Fluoromone™ labelled tracer (GS Red, Panvera, Part number P2894) and a Stabilizing Peptide 10× (Panvera, Part number P2815). The GR and Stabilizing Peptide reagents are stored at −70° C. while the GS Red is stored at −20° C. Also included in the kit are 1M DTT (Panvera, Part number P2325, stored at −20° C.) and GR Screening buffer 10× (Panvera, Part number P2814, stored at −70° C. initially but once thawed stored at room temperature). Avoid repeated freeze/thaws for all reagents. The GR Screening buffer 10× comprises 100 mM potassium phosphate, 200 mM sodium molybdate, 1 mM EDTA and 20% DMSO. Test compounds (1 μL) and controls (1 μL) in 100% DMSO were added to black polystyrene 384-well plates (Greiner low volume black flat-bottom, part number 784076). 0% control was 100% DMSO and 100% control was 10 μM Dexamethasone. Background solution (8 μL; assay buffer 10×, Stabilizing Peptide, DTT and ice cold MQ water) was added to the background wells. GS Red solution (7 μL; assay buffer 10×, Stabilizing Peptide, DTT, GS Red and ice cold water) was added to all wells except background wells. GR solution (7 μL; assay buffer 10×, Stabilizing Peptide, DTT, GR and ice cold water) was added to all wells. The plate was sealed and incubated in a dark at room temperature for 2 hours. The plate was read in an Analyst plate reader (LJL Biosystems/Molecular Devices Corporation) or other similar plate reader capable of recording fluorescence polarization (excitation wavelength 530 nm, emission wavelength 590 nm and a dichroic mirror at 561 nm).
Regarding `C[C@]12C=CC(=O)C=C1[C@@H](F)C[C@H]1[C@@H]3C[C@H]4OC(c5cccs5)O[C@@]4(C(=O)SCC#N)[C@@]3(C)C[C@H](O)[C@@]12F` (stereo partly drawn) [Example 9, S-(Cyanomethyl)(4aS,4bR,5S,6aS,6bS,9aR,10aS,10bS,12S)-4b,12-difluoro-5-hydroxy-4a,6a-dimethyl-2-oxo-8-(2-thienyl)-2,4a,4b,5,6,6a,9a,10,10a,10b,11,12-dodecahydro-6bH-naphtho[2′,1′:4,5]indeno[1,2-d][1,3]dioxole-6b-carbothioate], the IC50 is 0.57 nM.

As for `C[C@]12C=CC(=O)C=C1[C@@H](F)C[C@H]1[C@@H]3C[C@H]4OC(c5cccc(C#N)c5)O[C@@]4(C(=O)SCC#N)[C@@]3(C)C[C@H](O)[C@@]12F` (stereo partly drawn) [Example 25, S-(Cyanomethyl)(4aS,4bR,5S,6aS,6bS,9aR,10aS,10bS,12S)-8-(3-cyanophenyl)-4b,12-difluoro-5-hydroxy-4a,6a-dimethyl-2-oxo-2,4a,4b,5,6,6a,9a,10,10a,10b,11,12-dodecahydro-6bH-naphtho[2′,1′:4,5]indeno[1,2-d][1,3]dioxole-6b-carbothioate], the IC50 turned out to be 0.7 nM.

For the compound `C[C@]12C=CC(=O)C=C1[C@@H](F)C[C@H]1[C@@H]3C[C@H]4OC(c5ccco5)O[C@@]4(C(=O)SCC#N)[C@@]3(C)C[C@H](O)[C@@]12F` (stereo partly drawn) [Example 1], the half-inhibitory concentration (IC50) turned out to be 1.2 nM.

Consider `C[C@]12C=CC(=O)C=C1CC[C@@H]1[C@@H]2[C@@H](O)C[C@@]2(C)[C@H]1C[C@H]1OC(c3ccc(C(F)(F)F)cc3)O[C@]12C(=O)SCF` (stereo partly drawn) [Example 40, S-(Fluoromethyl)(4aR,4bS,5S,6aS,6bS,9aR,10aS,10bS)-5-hydroxy-4a,6a-dimethyl-2-oxo-8-[4-(trifluoromethyl)phenyl]-2,4a,4b,5,6,6a,9a,10,10a,10,11,12-dodecahydro-6bH-naphtho[2′,1′:4,5]indeno[1,2-d][1,3]dioxole-6b-carbothioate], for which the IC50 worked out at 1.7 nM.

Consider `CSC(=O)[C@@]12OC(c3ccccc3F)O[C@@H]1C[C@H]1[C@@H]3CCC4=CC(=O)C=C[C@]4(C)[C@H]3[C@@H](O)C[C@@]12C` (stereo partly drawn) [Example 44, S-Methyl (4aR,4bS,5S,6aS,6bS,9aR,10aS,10bS)-8-(2-fluorophenyl)-5-hydroxy-4a,6a-dimethyl-2-oxo-2,4a,4b,5,6,6a,9a,10,10a,10b,11,12-dodecahydro-6bH-naphtho[2′,1′:4,5]indeno[1,2-d][1,3]dioxole-6b-carbothioate], for which the IC50 came out at 0.62 nM.

Take `C[C@]12C=CC(=O)C=C1CC[C@@H]1[C@@H]2[C@@H](O)C[C@@]2(C)[C@H]1C[C@H]1OC(c3ccccc3F)O[C@]12C(=O)SCC#N` (stereo partly drawn) [Example 42, S-(Cyanomethyl)(4aR,4bS,5S,6aS,6bS,9aR,10aS,10bS)-8-(2-fluorophenyl)-5-hydroxy-4a,6a-dimethyl-2-oxo-2,4a,4b,5,6,6a,9a,10,10a,10b,11,12-dodecahydro-6bH-naphtho[2′,1′:4,5]indeno[1,2-d][1,3]dioxole-6b-carbothioate]: the IC50 stood at 1.5 nM.

In the case of `Cc1ccc(C2O[C@@H]3C[C@H]4[C@@H]5C[C@H](F)C6=CC(=O)C=C[C@]6(C)[C@@]5(F)[C@@H](O)C[C@]4(C)[C@]3(C(=O)SCF)O2)cc1` (stereo partly drawn) [Example 17, S-(Fluoromethyl)(4aS,4bR,5S,6aS,6bS,9aR,10aS,10bS,12S)-4b,12-difluoro-5-hydroxy-4a,6a-dimethyl-8-(4-methylphenyl)-2-oxo-2,4a,4b,5,6,6a,9a,10,10a,10b,11,12-dodecahydro-6bH-naphtho[2′,1′:4,5]indeno[1,2-d][1,3]dioxole-6b-carbothioate], the IC50 came out at 1.8 nM.

On to `C[C@]12C=CC(=O)C=C1[C@@H](F)C[C@H]1[C@@H]3C[C@H]4OC(c5ccc(Cl)cc5)O[C@@]4(C(=O)SCC#N)[C@@]3(C)C[C@H](O)[C@@]12F` (stereo partly drawn) [Example 28, S-(Cyanomethyl)(4aS,4bR,5S,6aS,6bS,9aR,10aS,10bS,12S)-8-(4-chlorophenyl)-4b,12-difluoro-5-hydroxy-4a,6a-dimethyl-2-oxo-2,4a,4b,5,6,6a,9a,10,10a,10b,11,12-dodecahydro-6bH-naphtho[2′,1′,4,5]indeno[1,2-d][1,3]dioxole-6b-carbothioate], for which the IC50 is 1.3 nM.

For the compound `C[C@]12C=CC(=O)C=C1[C@@H](F)C[C@H]1[C@@H]3C[C@H]4OC(c5ccc(C(F)(F)F)cc5)O[C@@]4(C(=O)SCC#N)[C@@]3(C)C[C@H](O)[C@@]12F` (stereo partly drawn) [Example 20, S-(Cyanomethyl)(4aS,4bR,5S,6aS,6bS,9aR,10aS,10bS,12S)-4b,12-difluoro-5-hydroxy-4a,6a-dimethyl-2-oxo-8-[4-(trifluoromethyl)phenyl]-2,4a,4b,5,6,6a,9a,10,10a,10b,11,12-dodecahydro-6bH-naphtho[2′,1′:4,5]indeno[1,2-d][1,3]dioxole-6b-carbothioate], the IC50 was found to be 2.4 nM.

As to `CSC(=O)[C@@]12OC(c3ccc(C)o3)O[C@@H]1C[C@H]1[C@@H]3C[C@H](F)C4=CC(=O)C=C[C@]4(C)[C@@]3(F)[C@@H](O)C[C@@]12C` (stereo partly drawn) [Example 8, S-Methyl (4aS,4bR,5S,6aS,6bS,9aR,10aS,10bS,12S)-4b,12-difluoro-5-hydroxy-4a,6a-dimethyl-8-(5-methyl-2-furyl)-2-oxo-2,4a,4b,5,6,6a,9a,10,10a,10b,11,12-dodecahydro-6bH-naphtho[2′,1′:4,5]indeno[1,2-d][1,3]dioxole-6b-carbothioate], the IC50 is 1.9 nM.

Turning to `C[C@]12C=CC(=O)C=C1[C@@H](F)C[C@H]1[C@@H]3C[C@H]4OC(c5ccccc5F)O[C@@]4(C(=O)SCC#N)[C@@]3(C)C[C@H](O)[C@@]12F` (stereo partly drawn) [Example 27, S-(Cyanomethyl)(4aS,4bR,5S,6aS,6bS,9aR,10aS,10bS,12S)-4b,12-difluoro-8-(2-fluorophenyl)-5-hydroxy-4a,6a-dimethyl-2-oxo-2,4a,4b,5,6,6a,9a,10,10a,10b,11,12-dodecahydro-6bH-naphtho[2′,1′:4,5]indeno[1,2-d][1,3]dioxole-6b-carbothioate], the IC50 is 1.1 nM.

For the compound `COc1ccc([C@H]2O[C@@H]3C[C@H]4[C@@H]5CCC6=CC(=O)C=C[C@]6(C)[C@H]5[C@@H](O)C[C@]4(C)[C@]3(C(=O)SC)O2)c(F)c1` (single isomer, unassigned) [Example 38 (8S)], the IC50 was 0.88 nM.

As for `CSC(=O)[C@@]12OC(c3ccc(C(F)(F)F)cc3)O[C@@H]1C[C@H]1[C@@H]3CCC4=CC(=O)C=C[C@]4(C)[C@H]3[C@@H](O)C[C@@]12C` (stereo partly drawn) [Example 41, S-Methyl (4aR,4bS,5S,6aS,6bS,9aR,10aS,10bS)-5-hydroxy-4a,6a-dimethyl-2-oxo-8-[4-(trifluoromethyl)phenyl]-2,4a,4b,5,6,6a,9a,10,10a,10b,11,12-dodecahydro-6bH-naphtho[2′,1′:4,5]indeno[1,2-d][1,3]dioxole-6b-carbothioate], the IC50 was 2.2 nM.

With `C[C@]12C=CC(=O)C=C1[C@@H](F)C[C@H]1[C@@H]3C[C@H]4OC(c5ccccc5)O[C@@]4(C(=O)SCF)[C@@]3(C)C[C@H](O)[C@@]12F` (stereo partly drawn) [Example 30, S-(Fluoromethyl)(4aS,4bR,5S,6aS,6bS,9aR,10aS,10bS,12S)-4b,12-difluoro-5-hydroxy-4a,6a-dimethyl-2-oxo-8-phenyl-2,4a,4b,5,6,6a,9a,10,10a,10b,11,12-dodecahydro-6bH-naphtho[2′,1′:4,5]indeno[1,2-d][1,3]dioxole-6b-carbothioate], the IC50 was found to be 1.1 nM.

Turning to `C[C@]12C=CC(=O)C=C1[C@@H](F)C[C@H]1[C@@H]3C[C@H]4OC(c5ccccc5F)O[C@@]4(C(=O)SCF)[C@@]3(C)C[C@H](O)[C@@]12F` (stereo partly drawn) [Example 21, S-(Fluoromethyl)(4aS,4bR,5S,6aS,6bS,9aR,10aS,10bS,12S)-4b,12-difluoro-8-(2-fluorophenyl)-5-hydroxy-4a,6a-dimethyl-2-oxo-2,4a,4b,5,6,6a,9a,10,10a,10b,11,12-dodecahydro-6bH-naphtho[2′,1′:4,5]indeno[1,2-d][1,3]dioxole-6b-carbothioate], the IC50 came out at 0.57 nM.
